These are literature values, as cited in patent US20090324709A1, “LIPOSOMAL FORMULATIONS” (Italfarmaco, S.A., priority 2004, published 2009).

Where two headings read alike, the source gives them in different places.

For this series the following is noted: for release of 5-FU: DSPC liposomes, six hours after preparation; for retention of iododeoxyuridine: egg PC:cholesterol 15:1 DRV liposomes; for retention of acyclovir: neutral egg PC:cholesterol 15:1 DRV liposomes.

`O=c1[nH]cc(F)c(=O)[nH]1` [Example 5-FU, 5-fluorouracil]: the “release of 5-FU” value is listed as 10% (25° C.) and 50% (37° C.). Further, the 5-FU that escapes result (LUV DSPC liposomes, 60 minutes) is “more than 75%”. In addition, the “escape of 5-FU” value (LUV SPC, SPC:Cholesterol (1:1), SPC:Cholate (84:16), in saturated 5-FU solution, after 50 minutes) is given as “more than 50%”. For the setting “LUV liposomes actively charged through pH gradient (U.S. Pat. No. 6,083,530)”, the “release of the drug on eliminating the pH gradient” value is reported as “immediate”. Besides, the “release of initially encapsulated 5-FU” value (SPC:Cholate liposomes in solution without 5-FU, after 5 minutes) was 80%. Where the note is “multilamellar liposomes of sphingomyelin, cholesterol and dicetyl-phosphate, 40 hours at 25° C.”, the “5-FU initially encapsulated still inside the liposomes” value is recorded as 20%. Also, where the note is “type A liposome soy lecithin:cholesterol hemisuccinate:cholesterol (10:1:4), 28 days at room temperature”, the 5-FU remaining inside was 10%. In addition, the 5-FU released (type B liposomes DPPC:cholesterol hemisuccinate:cholesterol (10:1:4), 42 days at room temperature) was 40%.
On to `CN(Cc1cnc2nc(N)nc(N)c2n1)c1ccc(C(=O)N[C@@H](CCC(=O)O)C(=O)O)cc1` [methotrexate], for which the methotrexate retention was 70% (EPC liposomes, MLV and REV, 30 days at 4° C.); 40% (EPC liposomes, MLV and REV, 30 days at 25° C.); under 10% (EPC liposomes, MLV and REV, 30 days at 37° C.); 35% (MLV HSPC:CHOL and HSPC:CHOL:DCP, 8 hours at 37° C.).
On to `O=c1[nH]c(=O)n([C@H]2C[C@H](O)[C@@H](CO)O2)cc1I` [iododeoxyuridine], for which the retention of iododeoxyuridine by setting is: (24 hours at 4° C.) 50%; (one hour at 37° C.) 20%.
Take `Nc1nc2c(ncn2COCCO)c(=O)[nH]1` [acyclovir]: the retention of acyclovir is on record as 48% (24 hours at 37° C.) and 44% (14 days at 4° C.).
Turning to `O=c1[nH]c(=O)n([C@H]2C[C@H](O)[C@@H](CO)O2)cc1F` [floxuridine], the retention of floxuridine (MLV SM:CHOL:DCP 4.8:2.8:1, 40 hours at 25° C.) was 70%.
